Measured values as given in PubChem BioAssay AID328 (DTP/NCI, 2004).
Values joined by “and” are separate entries in the source; they are usually repeats but may differ in a detail not shown here. Equal entries are not always repeated. Inconclusive results and toxic doses are left out.

Test system: BDF1 mice, P388 leukemia ip, median survival T/C
Assay: NCI In Vivo Anticancer Drug Screen. Data for tumor model P388 Leukemia (intraperitoneal) in B6D2F1 (BDF1) mice
Conditions: endpoint: median survival time, higher = longer survival
How it was run: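 Read-out is survival of treated animals expressed relative to the vehicle group, as a T/C ratio.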

## CC(O)C(O)C(O)C(/C=N\NC(N)=S)=N/NC(N)=S (centres undefined)
dose: 100.0 mg/kg/injection, schedule: Q01DX009 (ip), vehicle: saline
  T/C: 92 % of control
dose: 200.0 mg/kg/injection, schedule: Q01DX009 (ip), vehicle: saline
  T/C: 100 % of control
dose: 400.0 mg/kg/injection, schedule: Q01DX009 (ip), vehicle: saline
  T/C: 88 % of control

## CC1CC(C)(O)CC(C(O)CC2CC(=O)NC(=O)C2)C1=O (centres undefined)
dose: 0.4 mg/kg/injection, schedule: Q01DX010 (ip), vehicle: saline
  T/C: 181 % of control
dose: 0.5 mg/kg/injection, schedule: Q04DX003 (ip), vehicle: saline
  T/C: 111 % of control
dose: 0.8 mg/kg/injection, schedule: Q01DX010 (ip), vehicle: saline
  T/C: 90 % of control
dose: 1.2 mg/kg/injection, schedule: Q04DX003 (ip), vehicle: saline
  T/C: 123 % of control
dose: 1.3 mg/kg/injection, schedule: Q01DX001 (sc), vehicle: saline
  T/C: 118 % of control
dose: 2.0 mg/kg/injection, schedule: Q04DX003 (ip), vehicle: saline
  T/C: 161 % of control
dose: 2.16 mg/kg/injection, schedule: Q01DX001 (ip), vehicle: saline
  T/C: 116 % of control
dose: 2.16 mg/kg/injection, schedule: Q01DX001 (sc), vehicle: saline
  T/C: 119 % of control
dose: 3.33 mg/kg/injection, schedule: Q04DX003 (ip), vehicle: saline
  T/C: 92 % of control
dose: 3.6 mg/kg/injection, schedule: Q01DX001 (ip), vehicle: saline
  T/C: 114 % of control
dose: 3.6 mg/kg/injection, schedule: Q01DX001 (sc), vehicle: saline
  T/C: 118 % of control
dose: 3.6 mg/kg/injection, schedule: Q04DX003 (ip), vehicle: saline
  T/C: 107 % of control
dose: 6.0 mg/kg/injection, schedule: Q01DX001 (ip), vehicle: saline
  T/C: 116 % of control
dose: 6.0 mg/kg/injection, schedule: Q01DX001 (sc), vehicle: saline
  T/C: 113 % of control
dose: 10.0 mg/kg/injection, schedule: Q01DX001 (sc), vehicle: saline
  T/C: 113 % of control
dose: 288.0 micrograms/kg/injection, schedule: Q01DX009 (ip), vehicle: saline
  T/C: 155 % of control and 170 % of control
dose: 467.0 micrograms/kg/injection, schedule: Q04DX003 (sc), vehicle: saline
  T/C: 116 % of control
dose: 480.0 micrograms/kg/injection, schedule: Q01DX009 (ip), vehicle: saline
  T/C: 177 % of control
dose: 778.0 micrograms/kg/injection, schedule: Q04DX003 (ip), vehicle: saline
  T/C: 119 % of control
dose: 778.0 micrograms/kg/injection, schedule: Q04DX003 (sc), vehicle: saline
  T/C: 123 % of control
dose: 800.0 micrograms/kg/injection, schedule: Q01DX009 (ip), vehicle: saline
  T/C: 109 % of control
dose: 3600.0 micrograms/kg/injection, schedule: Q04DX003 (ip), vehicle: saline
  T/C: 92 % of control

## CCCCCCC(=O)/C=C/c1ccccc1OC
dose: 50.0 mg/kg/injection, schedule: Q01DX009 (ip), vehicle: saline with Tween-80
  T/C: 90 % of control
dose: 100.0 mg/kg/injection, schedule: Q01DX009 (ip), vehicle: saline with Tween-80
  T/C: 99 % of control
dose: 200.0 mg/kg/injection, schedule: Q01DX009 (ip), vehicle: saline with Tween-80
  T/C: 117 % of control

## COc1ccc(C(=O)N/N=C(\C)[C@]2(O)Cc3c(O)c4c(c(O)c3[C@@H](OC3CC(N)C(O)C(C)O3)C2)C(=O)c2c(OC)cccc2C4=O)cc1 (some centres undefined)
dose: 0.25 mg/kg/injection, schedule: Q01DX009 (ip), vehicle: water
  T/C: 117 % of control and 123 % of control
dose: 1.0 mg/kg/injection, schedule: Q01DX009 (ip), vehicle: water
  T/C: 156 % of control and 212 % of control
dose: 2.0 mg/kg/injection, schedule: Q01DX009 (ip), vehicle: water
  T/C: 275 % of control and 156 % of control
dose: 4.0 mg/kg/injection, schedule: Q01DX009 (ip), vehicle: water
  T/C: 244 % of control and 107 % of control
dose: 8.0 mg/kg/injection, schedule: Q01DX009 (ip), vehicle: water
  T/C: 107 % of control

## CC(=O)O[C@H]1C(=O)O[C@@H]2C[C@H]3C(C)=CC(=O)[C@@H](O)[C@]3(C)[C@H]3[C@@]4(O)OC[C@]32[C@@H]1[C@@H](C)[C@H]4O
dose: 0.13 mg/kg/injection, schedule: Q01DX010 (ip), vehicle: alcohol
  T/C: 227 % of control
dose: 0.2 mg/kg/injection, schedule: Q01DX010 (ip), vehicle: alcohol
  T/C: 100 % of control
dose: 0.4 mg/kg/injection, schedule: Q01DX010 (ip), vehicle: alcohol
  T/C: 150 % of control
dose: 0.5 mg/kg/injection, schedule: Q01DX009 (ip), vehicle: saline with Tween-80
  T/C: 120 % of control
dose: 0.6 mg/kg/injection, schedule: Q01DX010 (ip), vehicle: alcohol
  T/C: 166 % of control
dose: 0.75 mg/kg/injection, schedule: Q01DX009 (ip), vehicle: saline
  T/C: 120 % of control
dose: 0.75 mg/kg/injection, schedule: Q03HX008 (ip), vehicle: saline
  T/C: 110 % of control
dose: 0.75 mg/kg/injection, schedule: Q03HX016 (ip), vehicle: saline
  T/C: 120 % of control
dose: 1.0 mg/kg/injection, schedule: Q01DX009 (ip), vehicle: saline
  T/C: 100 % of control
dose: 1.0 mg/kg/injection, schedule: Q01DX010 (ip), vehicle: other
  T/C: 116 % of control
dose: 1.0 mg/kg/injection, schedule: Q01DX010 (ip), vehicle: saline
  T/C: 190 % of control
dose: 1.5 mg/kg/injection, schedule: Q01DX005 (ip), vehicle: saline
  T/C: 100 % of control
dose: 1.5 mg/kg/injection, schedule: Q03HX008 (ip), vehicle: saline
  T/C: 110 % of control
dose: 1.5 mg/kg/injection, schedule: Q03HX024 (ip), vehicle: saline
  T/C: 110 % of control
dose: 2.0 mg/kg/injection, schedule: Q01DX010 (ip), vehicle: alcohol
  T/C: 120 % of control
dose: 2.0 mg/kg/injection, schedule: Q01DX010 (ip), vehicle: other
  T/C: 120 % of control
dose: 2.0 mg/kg/injection, schedule: Q01DX010 (ip), vehicle: saline
  T/C: 190 % of control
dose: 3.0 mg/kg/injection, schedule: Q01DX005 (ip), vehicle: saline
  T/C: 120 % of control
dose: 4.0 mg/kg/injection, schedule: Q01DX010 (ip), vehicle: alcohol
  T/C: 120 % of control
dose: 4.0 mg/kg/injection, schedule: Q01DX010 (ip), vehicle: saline
  T/C: 190 % of control
dose: 6.0 mg/kg/injection, schedule: Q01DX005 (ip), vehicle: saline
  T/C: 100 % of control
dose: 6.0 mg/kg/injection, schedule: Q01DX009 (ip), vehicle: saline
  T/C: 90 % of control
dose: 6.0 mg/kg/injection, schedule: Q01DX010 (ip), vehicle: alcohol
  T/C: 213 % of control
dose: 6.0 mg/kg/injection, schedule: Q04DX003 (ip), vehicle: saline
  T/C: 95 % of control
dose: 6.0 mg/kg/injection, schedule: Q08DX002 (ip), vehicle: saline
  T/C: 100 % of control
dose: 8.0 mg/kg/injection, schedule: Q01DX009 (ip), vehicle: saline
  T/C: 116 % of control
dose: 8.0 mg/kg/injection, schedule: Q01DX010 (ip), vehicle: other
  T/C: 158 % of control
dose: 9.0 mg/kg/injection, schedule: Q01DX010 (ip), vehicle: alcohol
  T/C: 159 % of control
dose: 12.0 mg/kg/injection, schedule: Q01DX001 (ip), vehicle: saline
  T/C: 110 % of control
dose: 12.0 mg/kg/injection, schedule: Q01DX005 (ip), vehicle: saline
  T/C: 120 % of control
dose: 12.0 mg/kg/injection, schedule: Q08DX002 (ip), vehicle: saline
  T/C: 95 % of control
dose: 13.0 mg/kg/injection, schedule: Q01DX010 (ip), vehicle: alcohol
  T/C: 213 % of control
dose: 24.0 mg/kg/injection, schedule: Q04DX003 (ip), vehicle: saline
  T/C: 100 % of control
dose: 24.0 mg/kg/injection, schedule: Q08DX002 (ip), vehicle: saline
  T/C: 100 % of control
dose: 48.0 mg/kg/injection, schedule: Q04DX003 (ip), vehicle: saline
  T/C: 100 % of control
dose: 48.0 mg/kg/injection, schedule: Q08DX002 (ip), vehicle: saline
  T/C: 100 % of control
dose: 96.0 mg/kg/injection, schedule: Q01DX001 (ip), vehicle: saline
  T/C: 110 % of control
dose: 96.0 mg/kg/injection, schedule: Q08DX002 (ip), vehicle: saline
  T/C: 100 % of control
dose: 192.0 mg/kg/injection, schedule: Q01DX001 (ip), vehicle: saline
  T/C: 110 % of control
dose: 57.0 micrograms/kg/injection, schedule: Q01DX010 (ip), vehicle: alcohol
  T/C: 111 % of control
dose: 87.0 micrograms/kg/injection, schedule: Q01DX010 (ip), vehicle: alcohol
  T/C: 107 % of control

## Cc1cc(C)c(CCc2cc(C)c(C)cc2C)cc1C
dose: 50.0 mg/kg/injection, schedule: Q04DX003 (ip), vehicle: Klucel (hydroxypropylcellulose) (HPC)
  T/C: 95 % of control
dose: 100.0 mg/kg/injection, schedule: Q04DX003 (ip), vehicle: Klucel (hydroxypropylcellulose) (HPC)
  T/C: 91 % of control
dose: 200.0 mg/kg/injection, schedule: Q04DX003 (ip), vehicle: Klucel (hydroxypropylcellulose) (HPC)
  T/C: 87 % of control and 108 % of control

## O=CC(/C=N\Nc1ccccc1)=N/Nc1ccccc1
dose: 20.0 mg/kg/injection, schedule: Q01DX009 (ip), vehicle: saline with Tween-80
  T/C: 100 % of control
dose: 80.0 mg/kg/injection, schedule: Q01DX009 (ip), vehicle: saline with Tween-80
  T/C: 89 % of control
